pEC50: −log10 of the molar value.

Assay [1] has as its target T1, interaction between the recombinant extracellular domain (ECD) of PD-1 and native cell-bound PD-L1 (Homo sapiens, UniProt Q9NZQ7).
T1 construct: expressed in transfected cells
Nature of the assay: CHO/PD-L1 cell capture assay. Type of assay: cell-based. As to conditions: CHO cells overexpressing PD-L1, pre-incubated 1 hr with compound, captured on biotinylated Fc-PD-1 coated plates, 75 min at room temperature. The method, then: EC50-CHO/PD-L1-Capture Assay:
Compounds were tested in a cell capture assay to determine if they can specifically block the interaction between the recombinant extracellular domain (ECD) of PD-1 and native cell-bound PD-L1. Binding affinity of stable CHO cells overexpressing PD-L1 with its cognate recombinant ligand coated on plates was measured by counting the number of ‘captured’ cells. High-capacity streptavidin- coated plates were incubated with biotylated-Fc-PD-1 for 2 hours in PBS. Unbound ligand was washed out. CHO-PD-L1 cells (resuspended in PBS pH 7.4, 0.5 mM EDTA, and 2% bovine serum albumin) were pre-incubated for 1 hr with compound, dispensed into each PD-1 ECD coated well and then incubated for 75 min at room temperature. To stop the capture assay, a fixative/staining solution (final concentrations are 1.3% glutaraldehyde and 1.67 μM Draq5) was gently added to the cells and incubated for 2 hrs at room temperature. Unbound cells were then washed out and ‘captured’ cells were enumerated using a high-content microscopy system. EC50 values were calculated from the fit of the dose-response curves to a four-parameter equation. Representative data are shown below in Table 2.

The next assay has as its target T2, PD-1/PD-L1 interaction (Homo sapiens, UniProt Q9NZQ7).
T2 construct: expressed in transfected cells; host or cells: CHO cells (aAPC-PD-L1) co-cultured with Jurkat cells overexpressing PD-1 and an NFAT-luciferase reporter
Nature of the assay: PD-1/PD-L1 NFAT reporter co-culture assay. The format is cell-based. The note with it: Jurkat PD-1 NFAT-luciferase cells co-cultured with aAPC-PD-L1 CHO cells, 6 hrs at 37° C.; read-out: EC50 NFAT Luciferase. In a few lines: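 Restoration of TCR-driven NFAT luciferase signal: 6 h, 37 °C co-culture of PD-1 Jurkat reporter cells (pre-mixed with compound) on overnight-seeded PD-L1/anti-CD3 CHO monolayer. ONE-Glo luminescence; dose-response fitted to four-parameter equation for EC50.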

T1 sequence (Q9NZQ7 19-290): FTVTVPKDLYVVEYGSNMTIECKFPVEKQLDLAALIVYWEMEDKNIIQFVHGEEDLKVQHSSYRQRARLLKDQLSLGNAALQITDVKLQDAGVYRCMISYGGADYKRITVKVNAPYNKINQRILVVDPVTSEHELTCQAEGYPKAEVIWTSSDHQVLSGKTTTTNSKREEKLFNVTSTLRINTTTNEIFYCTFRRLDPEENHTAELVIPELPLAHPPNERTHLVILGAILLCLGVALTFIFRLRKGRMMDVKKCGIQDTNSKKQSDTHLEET
T2 sequence (Q9NZQ7 19-290): as above

As for `COc1nc(O[C@H]2CCc3c(-c4cccc5c4CC[C@@H]5Oc4nc(OC)c(CNC[C@@H](O)CC(=O)O)cc4Br)cccc32)c(Br)cc1CNCCO` [Example 8, (S)-4-(((5-bromo-6-(((1S,1′S)-1′-((3-bromo-5-(((2-hydroxyethyl)amino)methyl)-6-methoxypyridin-2-yl)oxy)-2,2′,3,3′-tetrahydro-1H,1′H-[4,4′-biinden]-1-yl)oxy)-2-methoxypyridin-3-yl)methyl)amino)-3-hydroxybutanoic acid], the negative-log EC50 (pEC50) was 7.10 in assay [1] and 6.54 at PD-1/PD-L1 interaction.

For the molecule `COc1nc(O[C@H]2CCc3c(-c4cccc5c4CC[C@@H]5Oc4nc(OC)c(CNCCO)cc4Br)cccc32)c(Br)cc1CNCCO` [Example 10, 2,2′-((((((1S,1′S)-2,2′,3,3′-tetrahydro-1H,1′H-[4,4′-biindene]-1,1′-diyl)bis(oxy))bis(5-bromo-2-methoxypyridine-6,3-diyl))bis(methylene))bis(azanediyl))bis(ethan-1-ol)], the pEC50 in assay [1] was 6.73; at PD-1/PD-L1 interaction it was 6.30.

Take `Cc1c(COc2cc(OCc3cncc(C#N)c3)c(CNC[C@@H](O)CC(=O)O)cc2Cl)cccc1-c1cccc(-c2ccc3cc(CNC[C@@H](O)CC(=O)O)ccc3c2)c1C` [Example 31, (S)-4-(((6-(3′-((4-((((S)-3-carboxy-2-hydroxypropyl)amino)methyl)-2-chloro-5-((5-cyanopyridin-3-yl)methoxy)phenoxy)methyl)-2,2′-dimethyl-[1,1′-biphenyl]-3-yl)naphthalen-2-yl)methyl)amino)-3-hydroxybutanoic acid]: the pEC50 in assay [1] was 7.52; on PD-1/PD-L1 interaction, 6.16.

As to `COc1nc(OCc2cccc(-c3cccc(COc4nc(OC)c(CN[C@@](C)(CO)C(=O)O)cc4Br)c3C)c2C)c(Br)cc1CN[C@@](C)(CO)C(=O)O` [Example 45, (2S,2′S)-2,2′-((((((2,2′-dimethyl-[1,1′-biphenyl]-3,3′-diyl)bis(methylene))bis(oxy))bis(5-bromo-2-methoxypyridine-6,3-diyl))bis(methylene))bis(azanediyl))bis(3-hydroxy-2-methylpropanoic acid)], the pEC50 in assay [1] was 6.78; at PD-1/PD-L1 interaction, 7.12.

`COc1nc(OCc2cccc(-c3cccc(COc4nc(OC)c(CN5CC[C@@H](O)C[C@H]5C(=O)O)cc4Cl)c3C)c2C)c(Cl)cc1CN1CC[C@@H](O)C[C@H]1C(=O)O` [Example 47, (2S,2′S,4R,4′R)-1,1′-(((((2,2′-dimethyl-[1,1′-biphenyl]-3,3′-diyl)bis(methylene))bis(oxy))bis(5-chloro-2-methoxypyridine-6,3-diyl))bis(methylene))bis(4-hydroxypiperidine-2-carboxylic acid)]: the values for the pEC50 (in assay [1]; at PD-1/PD-L1 interaction) were 6.65 and 6.30, respectively.

For `COc1nc(OCc2cccc(-c3cccc(COc4nc(OC)c(CN5C[C@@H](O)C[C@H]5C(=O)O)cc4Cl)c3C)c2C)c(Cl)cc1CN1C[C@@H](O)C[C@H]1C(=O)O` [Example 48, (2S,2′S,4S,4'S)-1,1′-(((((2,2′-dimethyl-[1,1′-biphenyl]-3,3′-diyl)bis(methylene))bis(oxy))bis(5-chloro-2-methoxypyridine-6,3-diyl))bis(methylene))bis(4-hydroxypyrrolidine-2-carboxylic acid)], the pEC50 was 6.53 in assay [1] and 6.39 at PD-1/PD-L1 interaction.

With `COc1nc(OCc2cccc(-c3cccc(COc4nc(OC)c(CNC[C@H](O)CC(=O)O)cc4Cl)c3C)c2C)c(Cl)cc1CNC[C@H](O)CC(=O)O` [Example 49, (3R,3′R)-4,4′-((((((2,2′-dimethyl-[1,1′-biphenyl]-3,3′-diyl)bis(methylene))bis(oxy))bis(5-chloro-2-methoxypyridine-6,3-diyl))bis(methylene))bis(azanediyl))bis(3-hydroxybutanoic acid)], the pEC50 in assay [1] is 6.91; on PD-1/PD-L1 interaction, 6.56.

Consider `COc1nc(OCc2cccc(-c3cccc(COc4nc(OC)c(CNC[C@H](O)CC(=O)O)cc4C4CC4)c3C)c2C)c(C2CC2)cc1CNC[C@H](O)CC(=O)O` [Example 54, (3R,3′R)-4,4′-((((((2,2′-dimethyl-[1,1′-biphenyl]-3,3′-diyl)bis(methylene))bis(oxy))bis(5-cyclopropyl-2-methoxypyridine-6,3-diyl))bis(methylene))bis(azanediyl))bis(3-hydroxybutanoic acid)], for which the pEC50 in assay [1] was 6.63; on PD-1/PD-L1 interaction, 6.00.

`COc1nc(OCc2cccc(-c3cccc(COc4nc(OC)c(CNC[C@@H](O)CC(=O)O)cc4C4CC4)c3C)c2C)c(C2CC2)cc1CNC[C@@H](O)CC(=O)O` [Example 55, (3S,3′S)-4,4′-((((((2,2′-dimethyl-[1,1′-biphenyl]-3,3′-diyl)bis(methylene))bis(oxy))bis(5-cyclopropyl-2-methoxypyridine-6,3-diyl))bis(methylene))bis(azanediyl))bis(3-hydroxybutanoic acid)]: the pEC50 in assay [1] was 6.50; at PD-1/PD-L1 interaction, 5.82.

With `COc1nc(OCc2cccc(-c3cccc(COc4nc(OC)c(CN(C)CC(=O)O)cc4Cl)c3C)c2C)c(Cl)cc1CN(C)CC(=O)O` [Example 76, 2,2′-((((((2,2′-dimethyl-[1,1′-biphenyl]-3,3′-diyl)bis(methylene))bis(oxy))bis(5-chloro-2-methoxypyridine-6,3-diyl))bis(methylene))bis(methylazanediyl))diacetic acid], the pEC50 in assay [1] is 7.08; on PD-1/PD-L1 interaction, 5.98.

As for `COc1nc(OCc2cccc(-c3cccc(COc4nc(OC)c(C[N+](C)(C)CC(=O)O)cc4Cl)c3C)c2C)c(Cl)cc1C[N+](C)(C)CC(=O)O` [Example 78, 1,1′-((((2,2′-dimethyl-[1,1′-biphenyl]-3,3′-diyl)bis(methylene))bis(oxy))bis(5-chloro-2-methoxypyridine-6,3-diyl))bis(N-(carboxymethyl)-N,N-dimethylmethanaminium)], the pEC50 is 6.73 in assay [1] and 6.40 at PD-1/PD-L1 interaction.

With `Cc1c(COc2cc(OCc3cncc(C#N)c3)c(CNC[C@@H](O)CC(=O)O)cc2Cl)cccc1-c1cccc(-c2ccc(OCCNC[C@@H](O)CC(=O)O)c(C(F)(F)F)c2)c1C` [Example 94, (S)-4-((4-((4″-(2-(((S)-3-carboxy-2-hydroxypropyl)amino)ethoxy)-2,2′-dimethyl-3″-(trifluoromethyl)-[1,1′:3′,1″-terphenyl]-3-yl)methoxy)-5-chloro-2-((5-cyanopyridin-3-yl)methoxy)benzyl)amino)-3-hydroxybutanoic acid], the pEC50 in assay [1] is 6.64; on PD-1/PD-L1 interaction, 6.68.

Take `Cc1c(COc2cc(OCc3cncc(C#N)c3)c(CNC[C@@H](O)CC(=O)O)cc2Cl)cccc1-c1cccc(-c2ccc(OCCNC[C@@H](O)CC(=O)O)cc2F)c1C` [Example 111, (S)-4-((4-((4″-(2-(((S)-3-carboxy-2-hydroxypropyl)amino)ethoxy)-2″-fluoro-2,2′-dimethyl-[1,1′:3′,1″-terphenyl]-3-yl)methoxy)-5-chloro-2-((5-cyanopyridin-3-yl)methoxy)benzyl)amino)-3-hydroxybutanoic acid]: the values for the pEC50 (in assay [1]; at PD-1/PD-L1 interaction) were 7.34 and 6.89, respectively.

Consider `COc1nc(OCc2cccc(-c3cccc(COc4nc(OC)c(CNCCCC(N)=O)cc4Br)c3C)c2C)c(Br)cc1CNCCCC(N)=O` [Example 116, 4,4′-((((((2,2′-dimethyl-[1,1′-biphenyl]-3,3′-diyl)bis(methylene))bis(oxy))bis(5-bromo-2-methoxypyridine-6,3-diyl))bis(methylene))bis(azanediyl))dibutanamide], for which the pEC50 in assay [1] was 6.87; on PD-1/PD-L1 interaction it was 6.15.
